Laboratory results taken from the supplement of paper PMC10307832.

Key:
Assay in all cases: relative viability (nuclei count vs DMSO), 5 days (fraction); higher = more cells survive
NCI-H2023 = tested on: NCI-H2023
How it was run: (§1)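 Lung cancer cell lines, seeded in 1536-well plates, were treated the following day by pin tool with a single drug or with five library-drug doses (not always all listed) in √10 steps on top of a fixed anchor-drug dose. Cells were fixed and nuclei stained in one step after 5 days, and nuclei were counted. Relative viability is the nuclei count for treated wells divided by that for vehicle wells, reported as medians of duplicate plates.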

NCI-H2405 = tested on: NCI-H2405
How it was run: as §1

NCI-H1993 = tested on: NCI-H1993
How it was run: as §1

HCC-78 = tested on: HCC-78
How it was run: as §1

ABC-1 = tested on: ABC-1
How it was run: as §1

UMC-11 = tested on: UMC-11
How it was run: as §1

ChaGo-K-1 = tested on: ChaGo-K-1
How it was run: as §1

NCI-H1793 = tested on: NCI-H1793
How it was run: as §1

EMC-BAC-2 = tested on: EMC-BAC-2
How it was run: as §1

NCI-H1944 = tested on: NCI-H1944
How it was run: as §1

LC-2-ad = tested on: LC-2-ad
How it was run: as §1

HCC-15 = tested on: HCC-15
How it was run: as §1

HARA = settings: first compound 0.04 µM
How it was run: as §1

## Clc1ccc(Nc2nnc(Cc3ccncc3)c3ccccc23)cc1 [Vatalanib] + O=C(CCCCCCC(=O)Nc1ccccc1)NO [Vorinostat] (partner 1 µM)
NCI-H2023; first compound 0.04 µM
  relative viability: 0.674
NCI-H2023; first compound 0.1265 µM
  relative viability: 0.688
NCI-H2023; first compound 0.4 µM
  relative viability: 0.716
NCI-H2023; first compound 1.265 µM
  relative viability: 0.5
NCI-H2023; first compound 4 µM
  relative viability: 0.628
NCI-H2405; first compound 0.04 µM
  relative viability: 1.09
NCI-H2405; first compound 0.1265 µM
  relative viability: 0.938
NCI-H2405; first compound 0.4 µM
  relative viability: 1.06
NCI-H2405; first compound 4 µM
  relative viability: 0.976
NCI-H1993; first compound 0.04 µM
  relative viability: 0.728
NCI-H1993; first compound 0.1265 µM
  relative viability: 0.795
NCI-H1993; first compound 0.4 µM
  relative viability: 0.806
NCI-H1993; first compound 1.265 µM
  relative viability: 0.709
NCI-H1993; first compound 4 µM
  relative viability: 0.726
HCC-78; first compound 0.04 µM
  relative viability: 0.425
HCC-78; first compound 0.1265 µM
  relative viability: 0.478
HCC-78; first compound 0.4 µM
  relative viability: 0.49
HCC-78; first compound 1.265 µM
  relative viability: 0.465
HCC-78; first compound 4 µM
  relative viability: 0.424
ABC-1; first compound 0.04 µM
  relative viability: 1.06
ABC-1; first compound 0.1265 µM
  relative viability: 0.863
ABC-1; first compound 0.4 µM
  relative viability: 1.01
ABC-1; first compound 4 µM
  relative viability: 1.39
UMC-11; first compound 0.04 µM
  relative viability: 0.361
UMC-11; first compound 0.1265 µM
  relative viability: 0.469
UMC-11; first compound 0.4 µM
  relative viability: 0.384
UMC-11; first compound 1.265 µM
  relative viability: 0.35
UMC-11; first compound 4 µM
  relative viability: 0.415
ChaGo-K-1; first compound 0.04 µM
  relative viability: 0.787
ChaGo-K-1; first compound 0.1265 µM
  relative viability: 0.758
ChaGo-K-1; first compound 0.4 µM
  relative viability: 0.848
ChaGo-K-1; first compound 1.265 µM
  relative viability: 0.766
ChaGo-K-1; first compound 4 µM
  relative viability: 0.788
NCI-H1793; first compound 0.04 µM
  relative viability: 0.767
NCI-H1793; first compound 0.1265 µM
  relative viability: 0.845
NCI-H1793; first compound 0.4 µM
  relative viability: 0.97
NCI-H1793; first compound 1.265 µM
  relative viability: 0.66
NCI-H1793; first compound 4 µM
  relative viability: 0.71
EMC-BAC-2; first compound 0.04 µM
  relative viability: 0.448
EMC-BAC-2; first compound 0.1265 µM
  relative viability: 0.414
EMC-BAC-2; first compound 0.4 µM
  relative viability: 0.392
EMC-BAC-2; first compound 4 µM
  relative viability: 0.457
NCI-H1944; first compound 0.04 µM
  relative viability: 0.546
NCI-H1944; first compound 0.1265 µM
  relative viability: 0.523
NCI-H1944; first compound 0.4 µM
  relative viability: 0.676
NCI-H1944; first compound 1.265 µM
  relative viability: 0.529
NCI-H1944; first compound 4 µM
  relative viability: 0.526
LC-2-ad; first compound 0.04 µM
  relative viability: 0.695
LC-2-ad; first compound 0.1265 µM
  relative viability: 0.743
LC-2-ad; first compound 0.4 µM
  relative viability: 0.768
LC-2-ad; first compound 1.265 µM
  relative viability: 0.682
LC-2-ad; first compound 4 µM
  relative viability: 0.676
HCC-15; first compound 0.04 µM
  relative viability: 0.853
HCC-15; first compound 0.1265 µM
  relative viability: 0.836
HCC-15; first compound 0.4 µM
  relative viability: 0.964
HCC-15; first compound 1.265 µM
  relative viability: 0.801
HCC-15; first compound 4 µM
  relative viability: 0.863
HARA
  relative viability: 0.643
